Test results: the CheMixHub ionic liquid set

Assay: xn = mol fraction of the nth substance listed

CCCCCCCCCCCCCCCC[n+]1ccccc1.[Cl-] + NCC(=O)NCC(=O)O + O
electrical conductivity [S/m], 100 kPa
Conditions	x1 = 8.993e-05, x2 = 0.001802	x1 = 8.996e-05, x2 = 0.001442	x1 = 8.999e-05, x2 = 0.001082	x1 = 9.003e-05, x2 = 0.0007214	x1 = 9.006e-05, x2 = 0.0003609	x1 = 9.009e-05, x2 = 0
298.15 K	0.024	0.023	0.022	0.021	0.02	0.02
303.15 K	0.025	0.024	0.023	0.022	0.021	0.021
308.15 K	0.027	0.026	0.024	0.023	0.022	0.021
313.15 K	0.028	0.027	0.025	0.024	0.023	0.023

FC1CC(F)(F)C(F)(F)C1(F)F (stereo not given) + CCCC[N+]1(C)CCCC1.FC(F)(F)C(F)(F)[P-](F)(F)(F)(C(F)(F)C(F)(F)F)C(F)(F)C(F)(F)F
101 kPa
Conditions	electrical conductivity [S/m]	viscosity [mPa·s]
298.1 K, x2 = 0	–	1.65
298.1 K, x2 = 0.252	–	8.05
298.1 K, x2 = 0.438	–	21.3
298.1 K, x2 = 0.653	0.275	–
298.1 K, x2 = 0.842	0.167	–
303 K, x2 = 0.177	0.746	–
303 K, x2 = 0.434	0.424	–
303 K, x2 = 0.839	0.21	–
303 K, x2 = 0.844	–	87.6
308.1 K, x2 = 0.077	0.594	–
313 K, x2 = 0.183	0.88	–
318.1 K, x2 = 0.077	0.699	–
318.1 K, x2 = 0.437	–	11.2
318.1 K, x2 = 0.836	0.359	–
323 K, x2 = 0.655	–	21.17

CCCCCCCC[n+]1ccccc1.[Br-] + NCC(=O)NCC(=O)O + O
electrical conductivity [S/m], 100 kPa
Conditions	288.15 K	293.15 K	298.15 K	303.15 K	308.15 K
x2 = 0.0008948, x1 = 0.00597	–	–	–	–	2.18
x2 = 0.0008948, x1 = 0.005972	–	–	1.72	1.92	–
x2 = 0.0008948, x1 = 0.005974	1.34	1.52	–	–	–
x2 = 0.000895, x1 = 0.005737	–	–	–	–	2.13
x2 = 0.000895, x1 = 0.005739	–	1.48	1.68	1.88	–
x2 = 0.000895, x1 = 0.005741	1.31	–	–	–	–
x2 = 0.0008953, x1 = 0.005443	–	–	1.62	1.82	2.05
x2 = 0.0008953, x1 = 0.005445	1.27	1.44	–	–	–
x2 = 0.0008956, x1 = 0.005122	–	–	1.57	1.76	1.98
x2 = 0.0008956, x1 = 0.005124	1.22	1.39	–	–	–
x2 = 0.0008959, x1 = 0.004789	–	1.34	1.51	1.69	1.88
x2 = 0.0008959, x1 = 0.00479	1.18	–	–	–	–
x2 = 0.0008962, x1 = 0.004442	1.14	1.29	1.45	1.62	1.79
x2 = 0.0008965, x1 = 0.004038	–	–	–	–	1.69
x2 = 0.0008965, x1 = 0.004039	1.07	1.21	1.36	1.52	–
x2 = 0.000897, x1 = 0.00359	–	–	1.26	1.4	1.55
x2 = 0.000897, x1 = 0.003592	0.984	1.12	–	–	–
x2 = 0.0008974, x1 = 0.003106	0.886	1	1.13	1.26	1.39
x2 = 0.0008979, x1 = 0.002563	0.768	0.87	0.975	1.09	1.19
x2 = 0.0008984, x1 = 0.002015	0.637	0.721	0.807	0.898	0.973
x2 = 0.0008987, x1 = 0.001634	0.54	0.61	0.682	0.758	0.823
x2 = 0.0008991, x1 = 0.001218	0.424	0.477	0.533	0.592	0.657
x2 = 0.0008995, x1 = 0.0007371	0.298	0.332	0.369	0.406	0.467
x2 = 0.001787, x1 = 0.006313	–	–	–	–	2.23
x2 = 0.001787, x1 = 0.006315	–	–	1.76	1.95	–
x2 = 0.001787, x1 = 0.006317	1.36	1.53	–	–	–
x2 = 0.001788, x1 = 0.005888	–	–	1.69	1.87	2.13
x2 = 0.001788, x1 = 0.00589	1.31	1.47	–	–	–
x2 = 0.001789, x1 = 0.005263	–	–	–	1.76	1.98
x2 = 0.001789, x1 = 0.005265	1.23	1.38	1.57	–	–
x2 = 0.001789, x1 = 0.005589	–	–	1.63	1.81	2.05
x2 = 0.001789, x1 = 0.005591	1.27	1.43	–	–	–
x2 = 0.00179, x1 = 0.004922	–	–	1.51	1.69	1.88
x2 = 0.00179, x1 = 0.004924	1.18	1.33	–	–	–
x2 = 0.001791, x1 = 0.004115	–	1.2	1.35	1.51	1.68
x2 = 0.001791, x1 = 0.004116	1.06	–	–	–	–
x2 = 0.001791, x1 = 0.004536	–	–	–	–	1.78
x2 = 0.001791, x1 = 0.004537	1.13	1.27	1.44	1.61	–
x2 = 0.001792, x1 = 0.003673	–	–	–	1.4	1.54
x2 = 0.001792, x1 = 0.003675	0.984	1.12	1.26	–	–
x2 = 0.001793, x1 = 0.003161	0.886	0.997	1.12	1.25	1.38
x2 = 0.001794, x1 = 0.002599	0.766	0.862	0.967	1.08	1.18
x2 = 0.001795, x1 = 0.001992	0.62	0.699	0.783	0.87	0.87
x2 = 0.001796, x1 = 0.001587	0.515	0.581	0.65	0.724	0.724
x2 = 0.001797, x1 = 0.0007376	0.292	0.326	0.36	0.389	0.389
x2 = 0.001797, x1 = 0.001185	0.405	0.456	0.51	0.566	0.566

C[N+](C)(C)CCC[N+]1(C)CCCCC1.N#C[N-]C#N.N#C[N-]C#N + CC#N
100 kPa
Conditions	viscosity [mPa·s]
288.15 K, x1 = 0.7996	2305
293.15 K, x1 = 0.0999	3.69
293.15 K, x1 = 1	4503
298.15 K, x1 = 0.3001	37.7
298.15 K, x1 = 0.5002	181
298.15 K, x1 = 1	2819
303.15 K, x1 = 0.3998	69.5
308.15 K, x1 = 0.0999	2.98
308.15 K, x1 = 0.3001	26.5
308.15 K, x1 = 0.3998	56.5
308.15 K, x1 = 0.5002	109
313.15 K, x1 = 0.2001	9.24
313.15 K, x1 = 0.8998	545
318.15 K, x1 = 0.0999	2.68
318.15 K, x1 = 0.2001	8.26
318.15 K, x1 = 0.5002	70.4
318.15 K, x1 = 0.7001	163
318.15 K, x1 = 1	618
323.15 K, x1 = 0.3001	17.3
323.15 K, x1 = 0.6	91.8
323.15 K, x1 = 0.7001	130
328.15 K, x1 = 0.2001	6.82
328.15 K, x1 = 0.5002	48.7
328.15 K, x1 = 0.6	74.3
333.15 K, x1 = 0.5002	41.6
333.15 K, x1 = 0.8998	183

CC[n+]1ccn(C)c1.N#C[S-] + CC[n+]1ccn(C)c1.N#C[N-]C#N
100 kPa, x1 = 1
Conditions	electrical conductivity [S/m]	viscosity [mPa·s]
318.15 K	3.92	12.98
328.15 K	–	10.25
338.15 K	–	8.3
343.15 K	–	7.53
